How the values were obtained:
[1] = molecular target: T1, human CB2R (cannabinoid receptor type 2) (Homo sapiens, UniProt P34972); assay: competitive radioligand binding, CHO membranes; conditions: [3H]WIN55212-2 displacement; mean of two values; read-out: KiCB2R (nM) mean ^a
T1 construct: gene CNR2; stably transfected in CHO cells; crude membrane homogenates
Description: competitive radioligand binding, CHO membranes on human CB2R (cannabinoid receptor type 2)

[2] = molecular target: T2, human CB1R (cannabinoid receptor type 1) (Homo sapiens, UniProt P21554); assay: competitive radioligand binding, CHO membranes; conditions: [3H]SR141716A displacement; mean of two values; read-out: KiCB1R (nM) mean ^a
T2 construct: gene CNR1; stably transfected in CHO cells; crude membrane homogenates
T2 sequence (P21554 whole entry): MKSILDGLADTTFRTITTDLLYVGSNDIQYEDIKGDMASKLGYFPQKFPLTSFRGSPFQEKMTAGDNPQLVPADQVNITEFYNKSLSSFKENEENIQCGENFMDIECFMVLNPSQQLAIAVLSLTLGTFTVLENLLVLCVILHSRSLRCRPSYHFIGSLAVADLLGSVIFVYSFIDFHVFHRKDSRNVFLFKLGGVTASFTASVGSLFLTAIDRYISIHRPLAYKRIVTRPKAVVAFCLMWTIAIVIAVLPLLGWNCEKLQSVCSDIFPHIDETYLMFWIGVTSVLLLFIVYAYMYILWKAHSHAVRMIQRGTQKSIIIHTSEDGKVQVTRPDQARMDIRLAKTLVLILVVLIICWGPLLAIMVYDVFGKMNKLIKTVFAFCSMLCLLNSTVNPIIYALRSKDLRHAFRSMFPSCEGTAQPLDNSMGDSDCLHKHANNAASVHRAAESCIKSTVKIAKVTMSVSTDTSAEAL
Description: competitive radioligand binding, CHO membranes on human CB1R (cannabinoid receptor type 1)

T1 sequence (P34972 whole entry): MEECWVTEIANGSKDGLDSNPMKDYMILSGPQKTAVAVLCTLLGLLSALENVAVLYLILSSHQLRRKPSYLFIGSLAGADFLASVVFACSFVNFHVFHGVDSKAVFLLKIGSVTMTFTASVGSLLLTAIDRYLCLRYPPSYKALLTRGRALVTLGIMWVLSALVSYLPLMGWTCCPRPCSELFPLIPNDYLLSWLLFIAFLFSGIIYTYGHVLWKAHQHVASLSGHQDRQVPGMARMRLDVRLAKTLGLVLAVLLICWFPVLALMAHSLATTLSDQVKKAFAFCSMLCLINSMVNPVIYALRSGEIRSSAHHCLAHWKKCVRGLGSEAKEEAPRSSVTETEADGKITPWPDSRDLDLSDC

Substance	Ki [1] [nM]	Ki [2] [nM]
(Z)-N-(6-Methoxy-3-(2-methoxyethyl)-benzo[d]-thiazol-2(3H)-ylidene)(1,2-closo-dicarba-dodecaborane)-carboxamide [2o]	7.37	76800
(Z)-N-(6-Methoxy-3-(2-methoxyethyl)-benzo[d]-thiazol-2(3H)-ylidene)(1,7-closo-dicarba-dodecaborane)-carboxamide [2m]	2.47	42300
(Z)-N-(6-Methoxy-3-(2-methoxyethyl)-benzo[d]-thiazol-2(3H)-ylidene)(1,12-closo-dicarba-dodecaborane)-carboxamide [2p]	3.17	8670
